{"source": "patent US11149046B2", "about": "“Antibacterial sideromycins” (Hsiri Therapeutics, Inc., priority 2014, dated 2021)", "key": {"[1]": {"test_system": "P. aeruginosa KW799/wt", "test": "MIC determination", "type": "cell-based, Pseudomonas aeruginosa", "conditions": "Pseudomonas aeruginosa, KW799/WT", "source_text": "(§1) Table 3 that was included in the first Example 4 section provides antibacterial data for the first synthetic sideromycins we prepared and studied. The second Example 4 section elaborated and expanded on that data with inclusion of representative antibacterial data in the text and associated pictures of Petri dish assays. MIC (minimum inhibition concentration) is given in μM and AD (agar diffusion zones of inhibition are given in mm from Kirby-Bauer Petri dish growth inhibition studies)."}, "[2]": {"test_system": "Pa4", "test": "MIC determination", "type": "cell-based, Pseudomonas aeruginosa", "conditions": "Pseudomonas aeruginosa; Table 5", "source_text": "as §1"}, "[3]": {"test_system": "P. aeruginosa KW799/61 (permeability mutant)", "test": "microbe, parasite or virus in culture", "type": "cell-based, Pseudomonas aeruginosa", "conditions": "Pseudomonas aeruginosa", "source_text": "(§2) MIC (minimum inhibition concentration) is given in μM and AD (agar diffusion zones of inhibition are given in mm from Kirby-Bauer Petri dish growth inhibition studies)."}, "[4]": {"test_system": "Pa6", "test": "MIC determination", "type": "cell-based, Pseudomonas aeruginosa", "conditions": "Pseudomonas aeruginosa", "source_text": "as §2"}, "[5]": {"test_system": "Pa-Da-1304 CF patient isolate", "test": "MIC determination", "type": "cell-based, Pseudomonas aeruginosa", "conditions": "for MIC: Pseudomonas aeruginosa; for susceptibility of the clinical isolate (in words): preliminary tests", "source_text": "as §2\nWe obtained a clinical isolate of Pseudomonas from a cystic fibrosis patient."}, "[6]": {"test_system": "A. baumannii ATCC 17961", "test": "MIC determination", "type": "cell-based, Acinetobacter baumannii", "conditions": "Acinetobacter baumannii", "source_text": "as §1"}, "[7]": {"test_system": "E. coli DC0", "test": "MIC determination", "type": "cell-based", "conditions": "Escherichia coli, DC0; Table 5; read-out: MIC", "source_text": "as §1"}, "[8]": {"test_system": "E. coli DC2 (permeability mutant)", "test": "MIC determination", "type": "cell-based", "conditions": "Escherichia coli", "source_text": "as §1"}, "[9]": {"test_system": "Pseudomonas aeruginosa 01 (Pa01)", "test": "MIC determination", "type": "cell-based", "conditions": "Pseudomonas aeruginosa, read-out: MIC", "source_text": "as §1"}, "[10]": {"test_system": "strains of Pseudomonas and Acinetobacter", "test": "Antibacterial activity, general statements", "type": "cell-based", "conditions": "general statements of the text", "experimental": "Antibiotic activity was determined using agar diffusion assays against representative Gram-negative bacteria, including Pseudomonas aeruginosa (Pa6), and several multidrug resistant forms of Acinetobacter baumannii. Representative results are shown in Table 1 and a corresponding picture of an actual petri dish showing the agar diffusion results (FIG. 4). […]."}, "[11]": {"test_system": "Acinetobacter baumannii ATCC 17961", "test": "Agar diffusion (Kirby-Bauer) assay, with and without hydrogel", "type": "cell-based", "source_text": "as §1\nWe investigated whether the sideromycin absorbed in the gel be able to diffuse out of the gel and into the agar to effect antibacterial growth. As a control, the sideromycin alone, without gel, was added in a separate 9 mm well, as usual.\nThe second question was whether the sideromycin continue to be released and be able to effect bacterial growth inhibition over extended periods. Thus, additional identical agar plates were prepared and stored at 4° C. for 24, 48 and 72 hours to allow diffusion of the sideromycin (control and gel forms) into the agar before allowing the bacteria to grow in an incubator. Then after each time period, the Petri dishes were incubated at 37° C. for 20 hours to promote bacteria growth in the agar. […] The study has been extended to as long as 168 hours (one week) with retention of antibiotic effectiveness."}, "[12]": {"test_system": "Pseudomonas aeruginosa KW799/wt", "test": "Agar diffusion (Kirby-Bauer) assay", "type": "cell-based", "conditions": "wild type Pseudomonas; FIG. 8, 9, 12", "source_text": "as §1"}, "[13]": {"test_system": "Acinetobacter", "test": "Murine Survival Experiment with Acinetobacter", "type": "in vivo", "conditions": "50 mg/kg IV at +30 min and +4 hr", "experimental": "In vivo data for murine survival with Acinetobacter is shown in Table 9 below and graphically in FIG. 14. In the experiments, 10^8 Acinetobacter was administered IP at time 0 on Day 1, and antibiotic was administered twice IV at +30 min and +4 hr"}, "[14]": {"test": "Animal tolerability study (NOAEL) in healthy mice", "type": "in vivo", "conditions": "24 hour study", "experimental": "With the easily formulated sideromycin in hand, we profiled sideromycin safety in healthy mice. Thus, sideromycin YML-I-115 was tested in healthy mice to determine its No-observed-adverse-effect level (NOAEL). We dosed the mice with YML-I-115 (the sodium salt) at 1 mg/kg, 20 mg/kg, 50 mg/kg, and 100 mg/kg through IV injection of the compound. […] Higher dosage animal experiments have been scheduled to determine the upper limit of the NOAEL value."}, "[15]": {"conditions": "ATCC17961, Table 5, head prints A. baumannii only, read-out: MIC"}, "[16]": {"conditions": "ATCC17961, Table 7, read-out: MIC"}}, "note": "Read-outs that look alike come from different tables or passages of the source.", "data": [{"smiles": "CC(=O)Oc1cccc(C(=O)N(CCCCNC(=O)c2cccc(OC(C)=O)c2OC(C)=O)CC(=O)N[C@H](C(=O)N[C@@H]2C(=O)N3C(C(=O)O)=C(Cl)CC[C@H]23)c2ccccc2)c1O", "note": "[YML-I-57]", "values": [{"measurement": "MIC", "setting": "[1]; Table 5, read-out: MIC", "result": 0.025, "unit": "µM"}, {"measurement": "MIC", "setting": "[2]", "result": 12, "unit": "µM"}, {"measurement": "MIC", "setting": "[3]", "result": 0.125, "unit": "µM"}, {"measurement": "MIC", "setting": "[4]; Table 5, read-out: MIC", "result": 1.56, "unit": "µM"}, {"measurement": "MIC", "setting": "[5]; Table 5", "result": "> 100", "unit": "µM"}, {"measurement": "MIC", "setting": "[6]; [15]", "result": "0.02 to 0.0625", "unit": "µM"}, {"measurement": "MIC", "setting": "[7]", "result": 0.006, "unit": "µM"}, {"measurement": "MIC", "setting": "[8]", "result": 0.006, "unit": "µM"}, {"measurement": "MIC", "setting": "[9]; Table 5", "result": 0.78, "unit": "µM"}, {"measurement": "antibacterial activity (in words)", "setting": "[10]", "result": "comparable to the fully acetylated version, YML-1-45"}]}, {"smiles": "O=C(CN(CCCCNC(=O)c1cccc(O)c1O)C(=O)c1cccc(O)c1O)N[C@H](C(=O)N[C@@H]1C(=O)N2C(C(=O)O)=C(Cl)CC[C@H]12)c1ccccc1", "note": "[YML-I-60]", "values": [{"measurement": "MIC", "setting": "[1]; Table 5, read-out: MIC", "result": 0.025, "unit": "µM"}, {"measurement": "MIC", "setting": "[2]", "result": 12, "unit": "µM"}, {"measurement": "MIC", "setting": "[4]; Table 5, read-out: MIC", "result": 6, "unit": "µM"}, {"measurement": "MIC", "setting": "[5]; Table 5", "result": "> 100", "unit": "µM"}, {"measurement": "MIC", "setting": "[6]; [15]", "result": "0.03 to 0.06", "unit": "µM"}, {"measurement": "MIC", "setting": "[6]; [16]", "result": 0.1, "unit": "µM"}, {"measurement": "MIC", "setting": "[9]; Table 5", "result": 1.5, "unit": "µM"}, {"measurement": "growth inhibition with hydrogel / multi-day diffusion (in words)", "setting": "[11]; plates stored at 4° C. for 24, 48 and 72 hours, then 37° C., or gel streaked on inoculated dish", "result": "zones of inhibition increased dramatically after each day"}]}, {"smiles": "CC(=O)Oc1cccc(C(=O)NCCCCN(CC(=O)N[C@@H](C(=O)N[C@@H]2C(=O)N3C2SC(C)(C)[C@@H]3C(=O)O)c2ccccc2)C(=O)c2cccc(O)c2O)c1OC(C)=O", "note": "(some centres unmarked) [YML-I-62]", "values": [{"measurement": "MIC", "setting": "[1]; Table 5, read-out: MIC", "result": 0.0156, "unit": "µM"}, {"measurement": "MIC", "setting": "[2]", "result": 0.0156, "unit": "µM"}, {"measurement": "MIC", "setting": "[3]", "result": 0.0078, "unit": "µM"}, {"measurement": "MIC", "setting": "[4]; beta-lactamase producer strain, read-out: MIC", "result": "> 100", "unit": "µM"}, {"measurement": "MIC", "setting": "[4]; in the presence of potassium clavulanate, read-out: MIC with added beta-lactamase inhibitor", "result": 0.0625, "unit": "µM"}, {"measurement": "MIC", "setting": "[5]; Table 5", "result": 0.78, "unit": "µM"}, {"measurement": "MIC", "setting": "[5]; clinical isolate from a cystic fibrosis patient", "result": "0.4 to 0.75", "unit": "µM"}, {"measurement": "MIC", "setting": "[6]; [15]", "result": 0.25, "unit": "µM"}, {"measurement": "MIC", "setting": "[6]; [16]", "result": 0.25, "unit": "µM"}, {"measurement": "MIC", "setting": "[9]; Table 5", "result": 0.0156, "unit": "µM"}, {"measurement": "zones of inhibition (in words)", "setting": "[12]", "result": "potently active"}]}, {"smiles": "O=C(CN(CCCCNC(=O)c1cccc(O)c1O)C(=O)c1cccc(O)c1O)NC(C(=O)NC1C(=O)N2C(C(=O)[O-])=C(Cl)CCC12)c1ccccc1.[Na+]", "note": "(centres unmarked) [YML-I-115]", "values": [{"measurement": "murine survival (surviving mice)", "setting": "[13]; D 1, 10^8 Acinetobacter IP", "result": 6}, {"measurement": "murine survival (surviving mice)", "setting": "[13]; D 2", "result": 6}, {"measurement": "murine survival (surviving mice)", "setting": "[13]; D 3", "result": 6}, {"measurement": "murine survival (surviving mice)", "setting": "[13]; D 4", "result": 6}, {"measurement": "murine survival (surviving mice)", "setting": "[13]; D 5", "result": 6}, {"measurement": "murine survival (surviving mice)", "setting": "[13]; D 6", "result": 6}, {"measurement": "murine survival (surviving mice)", "setting": "[13]; D 7", "result": 6}, {"measurement": "survival and behavior (in words)", "setting": "[14]; 1, 20, 50 and 100 mg/kg IV", "result": "All the mice survived and none of the mice experienced abnormal behavior"}, {"measurement": "No-observed-adverse-effect level (NOAEL)", "setting": "[14]; healthy mice, IV injection", "result": 100, "unit": "mg/kg"}]}, {"smiles": "CC1(C)S[C@@H]2[C@H](NC(=O)[C@H](N)c3ccc(O)cc3)C(=O)N2[C@H]1C(=O)O", "note": "[amoxicillin, reference compound]", "values": [{"measurement": "susceptibility of the clinical isolate (in words)", "setting": "[5]", "result": "resistant"}]}, {"smiles": "CC1(C)S[C@@H]2[C@H](NC(=O)[C@H](N)c3ccccc3)C(=O)N2[C@H]1C(=O)O", "note": "[ampicillin, reference compound]", "values": [{"measurement": "MIC", "setting": "[1]; Table 5, read-out: MIC", "result": 200, "unit": "µM"}, {"measurement": "MIC", "setting": "[1]; iron deficient media, read-out: MIC in Fe(−)MHII Media", "result": 250, "unit": "µM"}, {"measurement": "MIC", "setting": "[2]", "result": "> 200", "unit": "µM"}, {"measurement": "MIC", "setting": "[4]; Table 5, read-out: MIC", "result": "> 200", "unit": "µM"}, {"measurement": "MIC", "setting": "[5]; Table 5", "result": "> 200", "unit": "µM"}, {"measurement": "susceptibility of the clinical isolate (in words)", "setting": "[5]", "result": "resistant"}, {"measurement": "MIC", "setting": "[6]; [15]", "result": "> 200", "unit": "µM"}, {"measurement": "MIC", "setting": "[6]; [16]", "result": "> 200", "unit": "µM"}, {"measurement": "MIC", "setting": "[6]; ATCC17961, iron deficient media, read-out: MIC in Fe(−)MHII Media", "result": 250, "unit": "µM"}, {"measurement": "MIC", "setting": "[6]; ATCC17961, text, read-out: MIC", "result": "> 250", "unit": "µM"}, {"measurement": "MIC", "setting": "[9]; Table 7", "result": "> 200", "unit": "µM"}, {"measurement": "MIC", "setting": "[9]; Table 5", "result": "> 200", "unit": "µM"}, {"measurement": "zones of inhibition (in words)", "setting": "[12]", "result": "inactive"}, {"measurement": "zones of inhibition (in words)", "setting": "[11]; Acinetobacter, FIG. 8, 9, 10", "result": "inactive"}]}, {"smiles": "N[C@@H](C(=O)N[C@@H]1C(=O)N2C(C(=O)O)=C(Cl)CS[C@H]12)c1ccccc1", "note": "[cefaclor, reference compound]", "values": [{"measurement": "MIC", "setting": "[1]; Table 7, read-out: MIC", "result": "> 50", "unit": "µM"}, {"measurement": "MIC", "setting": "[6]; [16]", "result": "> 50", "unit": "µM"}, {"measurement": "MIC", "setting": "[9]; Table 7", "result": "> 50", "unit": "µM"}]}]}
